{"source": "patent US8383352B2", "about": "“Detection of maternal alcohol exposure” (Northwestern University, priority 2009, dated 2013)", "key": {"GR": {"test_system": "GR", "details": "in utero exposure to ethanol; Western blot, normalized to β-actin; pregnant Sprague-Dawley dams, last two weeks of gestation"}, "Gsα": {"test_system": "Gsα", "details": "in utero exposure to ethanol; Western blot, normalized to β-actin; pregnant Sprague-Dawley dams, last two weeks of gestation"}, "Dio3 [1]": {"test_system": "Dio3", "details": "in utero exposure to ethanol; Western blot, normalized to β-actin; pregnant Sprague-Dawley dams, last two weeks of gestation"}, "Dio3 [2]": {"test_system": "Dio3", "details": "fetal and adult frontal cortex and hippocampus; thyroid hormone levels inversely affected"}, "TRα": {"test_system": "TRα", "details": "in utero exposure to ethanol; Western blot, normalized to β-actin; pregnant Sprague-Dawley dams, last two weeks of gestation"}}}
{"smiles": "CCO", "note": "[ethanol]", "values": [{"measurement": "GR protein levels in placenta", "setting": "GR", "result": "down-regulation"}, {"measurement": "Gsα protein levels in placenta", "setting": "Gsα", "result": "up-regulation"}, {"measurement": "Dio3 protein levels in placenta", "setting": "Dio3 [1]", "result": "up-regulation"}, {"measurement": "Dio3 imprinting and total expression patterns", "setting": "Dio3 [2]", "result": "alters"}, {"measurement": "TRα protein levels in placenta", "setting": "TRα", "result": "down-regulation"}]}
